Source: publication PMC8815882, “Screening the pandemic response box identified benzimidazole carbamates, Olorofim and ravuconazole as promising drug candidates for the treatment of eumycetoma” (PLoS Neglected Tropical Diseases, 2022)
Read-outs that look alike come from different tables or passages of the source.

Test system: M. mycetomatis genome strain MM55
Test: CLSI M38-A2 based in vitro susceptibility screening (XTT or resazurin), growth at fixed concentration
Format: cell-based, Madurella mycetomatis
Conditions: Madurella mycetomatis; for Percent fungal survival at 100 µM: read-out: Percentage survival at 100um, 100 uM A (second replicate column)
[1] = mean of replicates, read-out: Percentage survival at 25um, 25 uM mean
[2] = replicate A, read-out: Percentage survival at 25um, 25 um A
[3] = replicate B, read-out: Percentage survival at 25um, 25 uM B
[4] = replicate C, read-out: Percentage survival at 25um, 25 uM C
[5] = mean of replicates, read-out: Percentage survival at 100um, 100 uM mean
[6] = replicate 1, read-out: Percentage survival at 100um, 100 uM A
[7] = replicate 2, read-out: Percentage survival at 100um, 100 uM A
[8] = replicate 3, read-out: Percentage survival at 100um, 100 uM A
[9] = mean of three replicates, read-out: Percentage survival at 25um, 25 uM mean
[10] = mean of three replicates, read-out: Percentage survival at 100um, 100 uM mean
[11] = replicate 1, read-out: Percentage survival at 100um, 100 uM A (first replicate column)
[12] = replicate 3, read-out: Percentage survival at 100um, 100 uM A (third replicate column)
[13] = mean, read-out: Percentage survival at 25um, 25 uM mean
[14] = mean, read-out: Percentage survival at 100um, 100 uM mean
[15] = replicate (first column), read-out: Percentage survival at 100um, 100 uM A
[16] = replicate (second column), read-out: Percentage survival at 100um, 100 uM A
[17] = replicate (third column), read-out: Percentage survival at 100um, 100 uM A
[18] = mean of replicates, MM55, read-out: Percentage survival at 25um, 25 uM mean
[19] = replicate A, MM55, read-out: Percentage survival at 25um, 25 um A
[20] = replicate B, MM55, read-out: Percentage survival at 25um, 25 uM B
[21] = replicate C, MM55, read-out: Percentage survival at 25um, 25 uM C
[22] = mean of replicates, MM55, read-out: Percentage survival at 100um, 100 uM mean
[23] = replicate 1, MM55, read-out: Percentage survival at 100um, 100 uM A
[24] = replicate 2, MM55, read-out: Percentage survival at 100um, 100 uM A
[25] = replicate 3, MM55, read-out: Percentage survival at 100um, 100 uM A

| Compound | activity at 25 µM [1] [%] | activity at 25 µM [2] [%] | activity at 25 µM [3] [%] | activity at 25 µM [4] [%] | activity at 100 µM [5] [%] | activity at 100 µM [6] [%] | activity at 100 µM [7] [%] | activity at 100 µM [8] [%] | other results |
| --- | --- | --- | --- | --- | --- | --- | --- | --- | --- |
| O=C(O)CCNC(=O)c1ccccc1 [MMV002224] | 93.9 | 90.2 | 96.2 | 95.4 | 89.7 | 96 | 83.6 | 89.5 |  |
| Cc1onc(-c2ccccc2)c1-c1ccc(S(N)(=O)=O)cc1 [MMV002260] |  | 85.1 | 77.3 | 81.8 |  |  |  |  | activity at 25 µM [9]: 81.4%; activity at 100 µM [10]: 99.5%; activity at 100 µM [11]: 101%; Percent fungal survival at 100 µM (replicate 2): 120%; activity at 100 µM [12]: 76.9% |
| Cc1ncc([N+](=O)[O-])n1CC(C)O (stereo not shown) [MMV002287] |  | 140 | 90.9 | 103 |  |  |  |  | activity at 25 µM [9]: 111%; activity at 100 µM [10]: 100%; activity at 100 µM [11]: 89.4%; Percent fungal survival at 100 µM (replicate 2): 122%; activity at 100 µM [12]: 90.2% |
| OC(Cn1cncn1)(Cn1cncn1)c1ccc(F)cc1F [MMV002337] |  | 137 | 52.7 | 150 |  |  |  |  | activity at 25 µM [13]: 113%; activity at 100 µM [14]: 1.38%; activity at 100 µM [15]: -3.44%; activity at 100 µM [16]: 4.59%; activity at 100 µM [17]: 3.01% |
| CCn1cc(C(=O)O)c(=O)c2cc(F)c(N3CCNC(C)C3)c(F)c21 (stereo not shown) [MMV002350] |  |  |  |  |  |  |  |  | activity at 25 µM [18]: 91.3%; activity at 25 µM [19]: 97.9%; activity at 25 µM [20]: 93.8%; activity at 25 µM [21]: 82.3%; activity at 100 µM [22]: 89%; activity at 100 µM [23]: 92.8%; activity at 100 µM [24]: 92.2%; activity at 100 µM [25]: 82.2% |
| C[C@@H]1O[C@@H]1P(=O)(O)O [MMV002354] | 88.5 | 88.5 | 86.5 | 90.5 | 88.2 | 81.5 | 93.4 | 89.6 |  |
| NC[C@H]1O[C@H](O[C@H]2[C@H](O)[C@@H](O[C@H]3O[C@H](CO)[C@@H](O)[C@H](N)[C@H]3O)[C@H](N)C[C@@H]2N)[C@H](N)C[C@@H]1O [MMV002459] | 86.6 | 96.5 | 69 | 94.3 | 63.3 | 89.3 | 40 | 60.6 |  |
| CSc1ccc2c(c1)C(N1CCN(C)CC1)Cc1ccccc1S2 (stereo not shown) [MMV002505] |  |  |  |  |  |  |  |  | activity at 25 µM [18]: 38.4%; activity at 25 µM [19]: 7.34%; activity at 25 µM [20]: 101%; activity at 25 µM [21]: 6.61%; activity at 100 µM [22]: 3.79%; activity at 100 µM [23]: 3.82%; activity at 100 µM [24]: -0.0923%; activity at 100 µM [25]: 7.64% |
| CC[C@@H]1C(=O)OC[C@@H]1Cc1cncn1C [MMV002516] | 82.7 | 90.3 | 90.6 | 67.2 | 73.8 | 82.4 | 85 | 53.9 |  |
| CO/N=C(\C(=O)N[C@@H]1C(=O)N2C(C(=O)OCOC(=O)C(C)(C)C)=C(/C=C\c3scnc3C)CS[C@H]12)c1csc(N)n1 [MMV002560] | 117 | 84.9 | 78.8 | 186 | 77.5 | 72.7 | 83.7 | 76 |  |
| COC(=O)Nc1nc2ccc([S+]([O-])c3ccccc3)cc2[nH]1 (stereo not shown) [MMV002565, Oxfendazole, reference compound] |  | 91.3 | 87.4 | 83.6 |  |  |  |  | activity at 25 µM [13]: 87.4%; activity at 100 µM [14]: 76.1%; activity at 100 µM [15]: 83.9%; activity at 100 µM [16]: 71.1%; activity at 100 µM [17]: 73.2% |
